The subject of series [1] is calf sclera-choroid-RPE (SCRPE). The series is described as follows: In vitro transport of substrate cassette across normoxic and hypoxic calf SCRPE. An excerpt: (§1) Animals used in this study were those that were sacrificed as part of other experiments approved by the Institutional Animal Care Committee of the Colorado State University (Fort Collins) and University of Colorado Anschutz Medical campus. Hypoxic and normoxic calf eyes were obtained from the Department of Physiology, School of Veterinary Medicine, Colorado State University (Fort Collins, Colo.). Briefly, 1 day old male Holstein calves (n=4) were kept in hypobaric hypoxic chambers (PB=445 mm Hg) for 2 weeks. For control experiment, age matched calves (n=4) were kept at ambient altitude (PB=650 mm Hg) and normoxia for two weeks. Hypoxic and normoxic rat eyes were obtained from the Department of Medicine, University of Colorado Anschutz Medical campus (Aurora, Colo.). Sprague Dawley rats (n=4) were maintained in hypobaric hypoxic chambers (PB=380 mm Hg) for 6 weeks and age matched controls were kept at ambient pressure and normoxia.
(§2) In vitro transport studies across hypoxic and control calf cornea and sclera-choroid-RPE (SCRPE) were carried using cassette dosing approach. A cassette of drug transporter substrates, Gly-Sar (PEPT), valacylovir (ATB^0+), MPP^+ (OCT), and phenylacetic acid (MCT) at a concentration of 100 μM each in assay buffer was prepared. Briefly, the calf eyes were harvested immediately after euthanasia and transferred to the laboratory on ice. Upon arrival in the lab, the eyes were washed with assay buffer and cleaned from muscle and unwanted tissues. Anterior and posterior parts were separated by circumferential cut at the limbus. Vitreous was removed and the neural retina was separated from the choroid-RPE by filling the eye cup with assay buffer. The retina afloat in assay buffer was isolated and the eye cup was divided into two pieces (˜1.5×1.5 cm) of sclera-choroid-RPE. Isolated tissues were mounted on modified Ussing chambers (Navicyte, Sparks, Nev.) such that the episcleral side of SCRPE or epithelial side of cornea was facing the donor chamber and retinal side or endothelial side of the cornea was facing the receiver chamber. The chambers were filled with 1.5 ml of assay buffer at 37° C. with (donor side) or without (receiver side) the cocktail of drug transporter substrates. For the study of effect of transporter inhibitors, cocktail mixture (500 μM) of transporter inhibitors was added on both donor and acceptor sides.
(§3) During the transport study, the bathing fluids were maintained at 37° C. using circulating warm water. The pH of the fluids was maintained at pH 7.4 using 95% air-5% CO2 aeration. Samples were collected (200 μL) from receiver side every hour for 6 hours and the removed volume was replaced with fresh assay buffer pre-equilibrated to 37° C. Drug levels were analyzed using a LC-MS/MS assay. Permeation data were corrected for dilution of the receiver concentrations with sample volume replenishment.
(§4) Analyte concentrations in transport study samples were measured using LC-MS/MS method after 5-fold dilution with acetonitrile to reduce the salt concentrations. A cassette analysis method was developed for simultaneous analysis of Gly-Sar, valacylovir, and MPP Phenyl acetic acid was analyzed separately with a negative ionization method and a normal phase separation method. An API-3000 triple quadrupole mass spectrometry (Applied Biosystems, Foster City, Calif., USA) coupled with a PerkinElmer series-200 liquid chromatography (Perkin Elmer, Waltham, Mass., USA) system was used for analysis. Gly-Sar, valacylovir and MPP were separated on Supelco C-5 column (2.1×10 mm, 3 μm) using water containing 0.1% formic acid (A) and acetonitrile:methanol (50:50 v/v) containing 0.1% formic acid (B) as mobile phase. A linear gradient elution at a flow rate of 0.3 ml/min with a total run time of 9 min was employed. Phenyl acetic acid was separated in normal phase separation mode on Obelisc-N silica column (2.1×10 mm, 3 μM) using 5 mM ammonium formate at pH 3.5 (A) and acetonitrile (B) as mobile phase.

For series [2], the system named is human sclera-choroid-RPE (SCRPE). Nature of the series: In vitro transport of transporter substrate cassette across human sclera-choroid-RPE. The protocol:
In vitro transport studies across human cornea and sclera-choroid-RPE (SCRPE) were carried out according to previously published method using the cassette dosing approach. Briefly, cassette of drug transporter substrate including Gly-Sar (PEPT), L-tryptophan (ATB^0+), MPP^+ (OCT), and phenyl acetic acid (MCT) at concentration of 100 μM in assay buffer was prepared. Briefly, the human eyes were washed with assay buffer and cleaned from muscle and conjunctiva tissues, and anterior and posterior parts were separated by giving circumferential cut behind the limbus. Small sclera part was left with cornea, which helps in mounting of cornea on Ussing chambers. Neural retina was separated from the choroid-RPE by filling the eye cup with assay buffer, and floating retina was collected. After separation of retina, eye cup was divided into two rectangular pieces (˜1.5×1.5 cm) of sclera-choroid-RPE. Isolated tissues were mounted on modified Ussing chambers (Navicyte, Sparks, Nev.) such that the episcleral side of SCRPE or epithelial side of cornea was facing the donor chamber and retinal side or endothelial side of cornea is facing the receiver chamber. To study the effect of directionality on transport, one set of Ussing chambers mounted so that sclera side facing the donor side and another set was mounted so that choroid-RPE facing the donor side. The effect of directionality of transport across cornea was not evaluated. The chambers were filled with 1.5 ml of assay buffer with (donor side) or without (receiver side) the cocktail of drug transporter substrates. For study of effect of transporter inhibitors, cocktail mixture (500 μM) of transporter inhibitor was added on both donor and acceptor side.
During the transport study, the bathing fluids were maintained at 37° C. using a circulating warm water and pH 7.4 using 95% air-5% CO2 aeration. Samples were collected (200 μL) form receiver side every hour for 6 hr and the lost volume was compensated with fresh assay buffer pre-equilibrated at 37° C. The drug levels were analyzed using a LC-MS/MS assay. Permeation data were corrected for dilution of the receiver solution with sample volume replenishment.
Analytes concentrations in transport study samples were analyzed using LC-MS/MS method after 5-fold dilution with acetonitrile to reduce the salt concentrations. Cassette analysis method was developed for simultaneous analysis of Gly-Sar, L-tryptophan and MPP^+. Phenyl acetic acid was analyzed separately in negative ionization method and normal phase separation method. An API-3000 triple quadrupole mass spectrometry (Applied Biosystems, Foster City, Calif., USA) coupled with a PerkinElmer series-200 liquid chromatography (Perkin Elmer, Walthm, Mass., USA) system was used for analysis. Gly-Sar, L-tryptophan and MPP^+ were separated on Supelco C-5 column (2.1×10 mm, 3 μm) using water containing 0.1% formic acid (A) and acetonitrile:methanol (50:50 v/v) containing 0.1% formic acid (B) as mobile phase and a linear gradient elution at a flow rate of 0.3 ml/min with total run time of 9 min. Phenyl acetic acid was separated in normal phase separation mode using Obelisc-N silica column (2.1×10 mm, 3 μM) using 5 mM ammonium formate, pH 3.5 (A) and acetonitrile (B) as mobile phase in linear gradient mode at flow rate of 0.3 ml with total run time of 6 min. Gly-Sar, L-tryptophan, and MPP^+ were analyzed in positive ionization mode with following multiple reaction monitoring (MRM) transitions: 147→90 (Gly-Sar); 205→188 (L-tryptophan); 170→128 (MPP^+). Phenyl acetic acid was analyzed in negative ionization mode with following multiple reaction monitoring (MRM) transitions: 135→91 (Phenyl acetic acid).

Another series concerns calf cornea. Nature of the series: In vitro transport of substrate cassette across normoxic and hypoxic calf cornea.
From the text: as §1, §2, §3, §4

Series [3] concerns New Zealand white rabbit sclera-choroid-RPE (SCRPE). The series is described as follows: In vitro transport across rabbit sclera-choroid-RPE (Ussing chamber). The series is classed as in vitro ADME. The settings on record: for cumulative % transport / permeability compared with GFX (in words): rabbit SCRPE. The protocol:
(§5) In vitro transport of […], and GFX-LYS were carried out across the New Zealand white rabbit cornea and sclera-choroid-[…]). Rabbit eyes were obtained within 24 hr of harvesting from Pel-Freez Biologicals (Rogers, Ark.) and shipped overnight in Hank's balanced salt solution on wet ice. Eyes were used immediately upon arrival. Eyes were washed with assay buffer and cleaned from the muscle and unwanted tissues. […] The small part of the sclera left with cornea helps in mounting the cornea on Ussing chambers. For isolation of the SCRPE, anterior and posterior parts were separated by a circumferential cut at the limbus. […] After separation of the retina, the eye cup was flattened with small cuts around the globe. […] A circulating water bath was used to maintain the temperature at 37° C. during the transport study. The pH of the assay buffer was maintained at 7.4 using 95% air-5% CO2 aeration which also helps in stirring of bathing solutions. Samples were collected (200 μL) from the receiver side every 30 minute for 3 hr and the lost volume was replaced with fresh assay buffer pre-equilibrated at 37° C. GFX levels were analyzed using an LC-MS/MS assay. […] GFX concentrations in the transport study and ocular tissue samples were analyzed using a validated LC-MS/MS method. […] Chromatographic separation of GFX and the internal standard moxifloxacin was performed on Obelisc C18 column (2.1×10 mm, 3 μm). Elution of analytes was performed using linear gradient elution with mobile phase consisting of 5 mM ammonium formate (pH 3.5) and acetonitrile (pH 3.5) with a flow rate of 300 μl/min and total run time of 6 min.

A further series deals with conjunctiva. The series is described as follows: In vitro transport of GFX prodrugs across conjunctiva. The series is classed as in vitro ADME, Rabbit.
Series [4] concerns New Zealand white rabbit cornea. The series is described as follows: In vitro transport across rabbit cornea (Ussing chamber). The series is classed as in vitro ADME. The protocol: as §5

The structures appear in SMILES notation. In brackets after ≈: the same amount, converted by molar mass. Entries after “also recorded” stand apart in the source; their conditions may differ. Read-outs that look alike come from different tables or passages of the source. Where a SMILES comes first, the peptide text is derived from it. [ ]: non-standard residue; d: D form. Sar = CNCC(=O)O

This is an account of results in patent US20130190324A1, “TOPICAL OCULAR DRUG DELIVERY” (The Regents of the University of Colorado, a body corporate, priority 2011, published 2013).

As usually defined, the solubility is how much of the substance goes into solution per volume. Read a low solubility as a poorly soluble substance.

As for `CN(CC(=O)O)C(=O)CN` [Gly-Sar] (H-Gly-[Sar]-OH), the “apparent permeability (Papp) across hypoxic vs normoxic tissue (in words)” value is listed as “significantly higher across normoxic SCRPE than hypoxic SCRPE” in series [1] and “significantly higher across normoxic cornea than hypoxic cornea” in the series on calf cornea. Further, the “sclera to retina transport higher than retina to sclera transport” value in series [2] was 1.6-2.0 fold.

As for `COc1c(N2CCN(C(=O)C(N)CC(C)C)C(C)C2)c(F)cc2c(=O)c(C(=O)O)cn(C3CC3)c12` (stereo not shown) [GFX-LEU, 7-(4-(2-amino-4-methylpentanoyl)-3-methylpiperazin-1-yl)-1-cyclopropyl-6-fluoro-8-methoxy-4-oxo-1,4-dihydroquinoline-3-carboxylic acid], the concentration in solution in the series “physchem” (water for injection) (solubility) came to 2160 µg/mL (≈ 4420 µM).

Turning to `N[C@@H](Cc1c[nH]c2ccccc12)C(=O)O` [L-tryptophan], the “sclera to retina transport higher than retina to sclera transport” value in series [2] (human, 6 h, 100 μM, pH 7.4) is 1.6-2.0 fold.

In turn, `Cc1ccc(-c2cc(C(F)(F)F)nn2-c2ccc(S(=O)(=O)NC(=O)C(N)CC(C)C)cc2)cc1` (stereo not shown) [CXB-LEU] gave a solubility in the series “physchem” (water for injection) of 16 µg/mL (≈ 32.4 µM).

`Cc1ccc(-c2cc(C(F)(F)F)nn2-c2ccc(S(=O)(=O)NC(=O)CCCC(=O)O)cc2)cc1` [CXB-MCT, 5-oxo-5-(4-(5-(p-tolyl)-3-(trifluoromethyl)-1H-pyrazol-1-yl)phenylsulfonamido)pentanoic acid] showed a solubility in the series “physchem” (water for injection) of 620 µg/mL (≈ 1250 µM).

With `Cc1ccc(-c2cc(C(F)(F)F)nn2-c2ccc(S(=O)(=O)NC(=O)C(N)CCCCN)cc2)cc1` (stereo not shown) [CXB-LYS, 2,6-diamino-N-(4-(5-p-tolyl-3-(trifluoromethyl)-1H-pyrazol-1-yl)phenylsulfonyl)hexanamide], the solubility in “physchem” (water) and in the series “physchem” (water for injection) was 50 µg/mL (≈ 98.1 µM) in each case.

As to `Cc1ccc(-c2cc(C(F)(F)F)nn2-c2ccc(S(=O)(=O)NC(=O)C(N)CCCNC(=N)N)cc2)cc1` (stereo not shown) [CXB-ARG], the solubility in the series “physchem” (water) and in “physchem” (water for injection) was 35 µg/mL (≈ 65.1 µM) each time.

Consider `COc1c(N2CCNC(C)C2)c(F)cc2c(=O)c(C(=O)NCCCC(=O)O)cn(C3CC3)c12` (stereo not shown) [GFX-MCT, 4-(1-cyclopropyl-6-fluoro-8-methoxy-7-(3-methylpiperazin-1-yl)-4-oxo-1,4-dihydroquinoline-3-carboxamido)butanoic acid], for which the “transport in presence of nicotinic acid (competitive inhibitor of MCT)” value in series [3] (SCRPE) was “not across SCRPE”; in the series on conjunctiva it was “significantly inhibited; also recorded: only inhibited by nicotinic acid across conjunctiva”. Further, the “cumulative % transport / permeability compared with GFX (in words)” value in series [3] and in series [4] was “significantly (p<0.01) higher than GFX” in each case. Moreover, the “cumulative % transport compared with GFX (in words)” value with conjunctiva was “significantly (p<0.01) higher than GFX”. The solubility in “physchem” (water for injection) amounted to 3010 µg/mL (≈ 6540 µM).

In turn, `Cc1ccc(-c2cc(C(F)(F)F)nn2-c2ccc(S(=O)(=O)NC(=O)CCCN(C)C)cc2)cc1` [CXB-OCT, 4-(dimethylamino)-N-((4-(5-(p-tolyl)-3-(trifluoromethyl)-1H-pyrazol-1-yl)phenyl)sulfonyl)butanamide] showed a solubility in the series “physchem” (water for injection) of 3220 µg/mL (≈ 6510 µM).

With `COc1c(N2CCN(C(=O)C(N)CCCCN)C(C)C2)c(F)cc2c(=O)c(C(=O)O)cn(C3CC3)c12` (stereo not shown) [GFX-LYS, 1-cyclopropyl-7-(4-(2,6-diaminohexanoyl)-3-methylpiperazin-1-yl)-6-fluoro-8-methoxy-4-oxo-1,4-dihydroquinoline-3-carboxylic acid], the “cumulative % transport / permeability compared with GFX (in words)” value in series [3] and in series [4] was “not significantly different from GFX” in each case. The solubility in the series “physchem” (water) and in “physchem” (water for injection) was 48000 µg/mL (≈ 95300 µM) throughout.
